Results taken from ChEMBL document CHEMBL1134944, “Design and synthesis of xanthine analogues as potent and selective PDE5 inhibitors” (Bioorg Med Chem Lett, 2002).
Each block holds one compound with its values, some of them ahead of it. Active and inactive are the calls of the source. The calls are words filed in the database; no cut-off is given here.

Experiments:
[1] = molecular target: T1, cGMP-specific 3',5'-cyclic phosphodiesterase (Homo sapiens, UniProt O76074); assay: Percentage inhibition against human phosphodiesterase type 5 isolated from corpus cavernosum at 100 nM.
[2] = molecular target: T1, cGMP-specific 3',5'-cyclic phosphodiesterase; assay: Concentration required to inhibit phosphodiesterase type 5 (PDE5) isolated from corpus cavernosum by 50% was determined
[3] = molecular target: Phosphodiesterases; PDE5 & PDE6 (Homo sapiens) (UniProt O76074+Q13956+P18545+P35913+O43924+P16499+P51160); assay: Selectivity for PDE6 compared to PDE5.; assay type: protein assay
[4] = Relative inhibition of PDEs 1-4 and PDE5
Oryctolagus cuniculus [5] = organism: Oryctolagus cuniculus; assay: 8.0 Hz electrical frequency stimulated (EFS) relaxation of rabbit corpus cavernosum at 25-30 nM; assay type: functional
Oryctolagus cuniculus [6] = organism: Oryctolagus cuniculus; assay: 2.0 Hz electrical frequency stimulated (EFS) relaxation of rabbit corpus cavernosum at 25-30 nM; assay type: functional
Oryctolagus cuniculus [7] = organism: Oryctolagus cuniculus; assay: 4.0 Hz electrical frequency stimulated (EFS) relaxation of rabbit corpus cavernosum at 25-30 nM; assay type: functional
Oryctolagus cuniculus [8] = organism: Oryctolagus cuniculus; assay: 1.0 Hz electrical frequency stimulated (EFS) relaxation of rabbit corpus cavernosum at 25-30 nM; assay type: functional
Oryctolagus cuniculus [9] = organism: Oryctolagus cuniculus; assay: 16.0 Hz electrical frequency stimulated (EFS) relaxation of rabbit corpus cavernosum at 25-30 nM; assay type: functional
Oryctolagus cuniculus [10] = organism: Oryctolagus cuniculus; assay: 0.50 Hz electrical frequency stimulated (EFS) relaxation of rabbit corpus cavernosum at 25-30 nM; assay type: functional

Compound: CCn1c(=O)c2c(nc(NC3CCCC3)n2Cc2ccccc2)n(CC(C)C)c1=O
inhibition [1]: 56%

Compound: CC(C)Cn1c(=O)n(C)c(=O)c2c1nc(NC1CCCCC1)n2Cc1ccccc1
inhibition [1]: 52%

Compound: CCn1c(=O)c2c(nc(NC3CCCC3)n2Cc2ccc(O)c(F)c2)n(CC)c1=O
Ratio [4]: > 4400
IC50 [2]: 0.82 nM
Ratio [3]: 182

Compound: Cn1c(=O)c2c(nc(N[C@@H]3CCC[C@H]3O)n2Cc2ccccc2)n(C)c1=O
inhibition [1]: 17%

Compound: Cn1c(=O)c2c(nc(NC3CCCCC3)n2Cc2ccccc2)n(C)c1=O
inhibition [1]: 54%

Compound: CCn1c(=O)c2c(nc(NC3CCCCC3)n2Cc2ccc(O)cc2)n(CC)c1=O
Ratio [4]: > 3000
Relaxation (Oryctolagus cuniculus [5]): 75%
Relaxation (Oryctolagus cuniculus [6]): 75%
Relaxation (Oryctolagus cuniculus [7]): 75%
IC50 [2]: 0.6 nM
Ratio [3]: 101
Relaxation (Oryctolagus cuniculus [8]): 50%
Relaxation (Oryctolagus cuniculus [9]): 75%
Relaxation (Oryctolagus cuniculus [10]): 25%

Compound: CCn1c(=O)c2c(nc(NC3CCCCC3)n2Cc2ccc(OC)c(Cl)c2)n(CC)c1=O
Ratio [4]: > 9500
IC50 [2]: 0.58 nM
Ratio [3]: 345

Compound: Cn1c(=O)c2c(nc(N[C@H](CO)Cc3ccccc3)n2Cc2ccccc2)n(C)c1=O
inhibition [1]: 0%

Compound: CCn1c(=O)c2c(nc(NC3CCCCC3)n2Cc2ccc3c(c2)OCO3)n(CC)c1=O
IC50 [2]: 3.7 nM
Ratio [3]: 14

Compound: CC(C)[C@@H](CO)Nc1nc2c(c(=O)n(C)c(=O)n2C)n1Cc1ccccc1
inhibition [1]: 2%

Compound: CCn1c(=O)c2c(nc(NC3CCCCC3)n2Cc2ccc(OC)c(C)c2)n(CC)c1=O
IC50 [2]: 19 nM
Ratio [3]: 58

Compound: CCn1c(=O)c2c(nc(NC3CCCCC3)n2Cc2ccc(OC)c(F)c2)n(CC)c1=O
Ratio [4]: > 28000
IC50 [2]: 0.3 nM
Ratio [3]: 350

Compound: CCn1c(=O)c2c(nc(NC3CCCCC3)n2Cc2ccc(O)c(C)c2)n(CC)c1=O
IC50 [2]: 4.5 nM
Ratio [3]: 133

Compound: CCn1c(=O)c2c(nc(NC3CCCCC3)n2Cc2ccc(OC)c(Br)c2)n(CC)c1=O
Ratio [4]: > 10000
IC50 [2]: 1.7 nM
Ratio [3]: 219

Compound: CCn1c(=O)c2c(nc(NC3CCCCC3)n2Cc2ccc(O)c(Cl)c2)n(CC)c1=O
IC50 [2]: 2 nM
Ratio [3]: 250

Compound: Cn1c(=O)c2c(nc(N[C@@H](CO)c3ccccc3)n2Cc2ccccc2)n(C)c1=O
inhibition [1]: 0%

Compound: CCn1c(=O)c2c(nc(NC3CCCCC3)n2Cc2cccc(O)c2)n(CC)c1=O
IC50 [2]: 1.2 nM
Ratio [3]: 36

Compound: CC(C)Cn1c(=O)n(C)c(=O)c2c1nc(NC1CCCC1)n2Cc1ccccc1
inhibition [1]: 49%

Compound: CCn1c(=O)c2c(nc(NC3CCCCC3)n2Cc2ccc(O)c(F)c2)n(CC)c1=O
Ratio [4]: > 12000
IC50 [2]: 0.33 nM
Ratio [3]: 364

Compound: CCn1c(=O)c2c(nc(NC3CCCC3)n2Cc2ccc(OC)cc2)n(CC)c1=O
IC50 [2]: 2.1 nM
Ratio [3]: 33

Compound: Cn1c(=O)c2c(nc(NC3CCCC3)n2Cc2ccccc2)n(C)c1=O
inhibition [1]: 62%

Compound: CCn1c(=O)c2c(nc(NC3CCCC3)n2Cc2ccccc2)n(CC)c1=O
inhibition [1]: 91%
Ratio [3]: 21

Compound: Cn1c(=O)c2c(nc(N[C@@H](CO)Cc3ccccc3)n2Cc2ccccc2)n(C)c1=O
inhibition [1]: 4%

Results, then the compound that gave them:

IC50 [2]: 12 nM
inhibition [1]: 93%
Ratio [3]: 35
Compound: CCn1c(=O)c2c(nc(NC3CCCCC3)n2Cc2ccccc2)n(CC)c1=O

IC50 [2]: 100 nM
Ratio [3]: inactive
Compound: CCn1c(=O)c2c(nc(NC3CCCCC3)n2Cc2cccc(OC)c2)n(CC)c1=O

IC50 [2]: 2.6 nM
Ratio [3]: 51
Compound: CCn1c(=O)c2c(nc(NC3CCCCC3)n2Cc2ccc(OC)cc2)n(CC)c1=O

IC50 [2]: 1.1 nM
Ratio [3]: 118
Compound: CCn1c(=O)c2c(nc(NC3CCCC3)n2Cc2ccc(OC)c(Cl)c2)n(CC)c1=O

IC50 [2]: 0.69 nM
Ratio [3]: 89
Compound: CCn1c(=O)c2c(nc(NC3CCCC3)n2Cc2ccc(OC)c(F)c2)n(CC)c1=O

inhibition [1]: 5%
Compound: Cn1c(=O)c2c(nc(N[C@H](CO)c3ccccc3)n2Cc2ccccc2)n(C)c1=O

inhibition [1]: 10%
Compound: Cn1c(=O)c2c(nc(NCC3(O)CCCCC3)n2Cc2ccccc2)n(C)c1=O

IC50 [2]: 1.5 nM
Ratio [3]: 46
Compound: CCn1c(=O)c2c(nc(NC3CCCC3)n2Cc2ccc(O)cc2)n(CC)c1=O

inhibition [1]: 63%
Compound: CCn1c(=O)c2c(nc(NC3CCCCC3)n2Cc2ccccc2)n(CC(C)C)c1=O

inhibition [1]: 11%
Compound: CC(C)[C@H](CO)Nc1nc2c(c(=O)n(C)c(=O)n2C)n1Cc1ccccc1

IC50 [2]: 1.8 nM
Ratio [3]: 261
Compound: CCn1c(=O)c2c(nc(NC3CCCC3)n2Cc2ccc(O)c(Cl)c2)n(CC)c1=O
